How the values were obtained:
C1-pulsed splenocytes = test: CD1d dimer staining of in vivo C1-pulsed splenocytes; format: binding, B6 WT mice; settings: CD3+/CD45R− gated; 3 days after C1 1 μg/mouse
Description: B6 WT splenocytes (n=3) were harvested 3 days after injection with C1 (1 μg/mouse) and stained with CD3, CD45R and the indicated dimer complex conjugated with RPE for 1 hr at 4 degrees Celsius. (11A) CD3+/CD45R− cells were gated to analyze the dimer staining. (11B) unloaded dimer was used as the control. (11C) mCD1d dimer loaded with 7DW8-5-Glc stained 17.1±0.8% of C1-pulsed splenocytes. (11D) mCD1d dimer loaded with 7DW8-5 stained 36.2±5.0% of C1-pulsed splenocytes.

Vα24+/Vβ11+ iNKT TCR = Vα24+/Vβ11+ iNKT TCR (Homo sapiens, UniProt A0A075B6N4+A0A0B4J240+P15813); test: Binding avidity of hCD1d-loaded glycolipids with Vα24+ iNKT cells (ternary interaction); settings: for Kd: in complex with hCD1d, Scatchard transformation, read-out: KD of ternary complex, hCD1d-glycolipid toward Vα24+/Vβ11+ iNKT TCR
Description: (3A) DN3A4-1.2 Vα14+ iNKT hybridoma cells and (3B) 7DW8-5-expanded Vα24^+ iNKT cells were incubated with various concentrations of the indicated dimeric mCD d-glycolipid and hCD1d-glycolipid complexes for 30 min at 4° C., respectively. The level of bound complexes at the indicated concentration was detected by anti-mIgG1 secondary antibody and analyzed by flow cytometry. The relationship between the binding percentage and the concentration of CD1ddi-glycolipids complex was plotted in mice (3A) and humans (3B). KD values in mice (3C) and humans (3D) were calculated from Scatchard transformation of the plot (3A) and 3B), respectively. Assay was performed in duplicates. Binding avidity of human CD1d-glycolipid complexes to Vα24^+ iNKT cells expanded by 7DW8-5 at 100 ng/ml was determined as described previously.^19 Next, we measured the ternary interaction between CD1d-glcolipid complex and the iNKT TCR in mice and humans. Different concentrations of mCD1d^di-glycolipid and hCD1d^di-glycolipid complexes were incubated with fixed amounts of DN3A4-1.2 murine iNKT hybridoma cells and human Vα24+/Vβ11^+ iNKT cells, respectively. The level of bound complexes at the indicated concentration was detected by anti-mIgG1 secondary antibody and analyzed by flow cytometry (FIGS. 3A and 3B). The KD of the ternary complex was calculated from the Scatchard transformation of the plots in FIGS. 3A and 3B using GraphPad Prism software. […] This was consistent with the observation that higher percentages of C1-pulsed splenocytes were stained by the mCD1d-7DW8-5 complex (36.2±5.0%) than mCD1d-7DW8-5-Glc complex (17.1±0.8%) (FIG. 11).

Jα18 KO mice = test: Murine serum cytokine/chemokine secretion after i.v. glycolipid, Jα18 knockout mice; format: in vivo; settings: 1 μg/mouse; sera 2 and 18 hr
Description: (§1) B6 wild type and Jα18 knockout mice were i.v. injected with the indicated glycolipids (1 μg/mouse) or vehicle. Sera collected at 2 h and 18 h post-injection were analyzed for cytokines like IL-2 (7A), IL-6 (7B), GM-CSF (7C) and TNFα (7D) as well as chemokines such as IP-10 (7E), MIG (7F), KC (7G) and MCP-1 (7H). Only MIG peaked at 18 hr post-injection, while the others peaked at 2 hr post-injection.
(§2) All the glycolipids were dissolved in 100% DMSO at a concentration of 1-2 mg/ml. For in vivo experiments, all compounds were diluted to 10 μg/ml in saline just before injection of 100 μl diluted glycolipid or 100 μl 1% DMSO into mice. Pathogen-free C57BL/6 female mice aged 6-12 weeks were obtained from the National Laboratory Animal Center (Taipei, Taiwan). Jα18 knockout (KO) B6 mice were the gifts from Dr. Masaru Taniguchi (RIKEN Research Center for Allergy and Immunology, Yokohama, Japan). All the mice were maintained in pathogen free vivarium of Institute of Cellular and Organismic Biology, Academia Sinica (Taipei, Taiwan).
(§3) B6 WT or Jα18 KO mice were intravenously injected with vehicle or glycolipids at 0.1 or 1 μg/mouse. Serum was collected at 2 and 18 h after injection for measurement of cytokines/chemokines by Beadlyte® Mouse Cytokine kit (Millipore, N.Y.) and read by a Luminex® 200™ system (Luminex, Austin, Tex.).

B6 wild type mice = test: Murine serum cytokine/chemokine secretion after i.v. glycolipid, wild type mice; format: in vivo, mouse
Description: B6 wild type mice were i.v. injected with 7DW8-5-Glc at 0.1 or 1 μg/mouse. Sera collected at 2 h and 18 h post-injection were analyzed for chemokine secretions such as IP-10 (6A), KC (6B), MCP-1 (6C), and MIP-1α (6D). These chemokines peaked at 2 hr post-injection.
as §1, §2, §3
Previously, 0.1 μg/mouse of 7DW8-5 was sufficient for immune stimulation,^19 but higher dosage (1 μg/mouse) was required for the glucose analog 7DW8-5-Glc to induce immune responses (FIG. 6). Thus, the biological activities of newly synthesized glycolipids were tested in B6 mice 2 and 18 hr after i.v. injection of glycolipids at 1 μg/mouse. […] As compared to GSLs with αGlc, GSLs with αGal induced higher levels of cytokines and chemokines, including IFN-γ, IL-2, IL-4, IL-6, GM-CSF, TNFα and IP-10.

Kd (Vα24+/Vβ11+ iNKT TCR) [pM]	staining of human iNKT cells with CD1d-glycolipid dimer (Vα24+/Vβ11+ iNKT TCR)	SMILES	percentage of C1-pulsed splenocytes stained by mCD1d dimer loaded with glycolipid (C1-pulsed splenocytes) [%]	induction of cytokines in Jα18 KO mice (Jα18 KO mice)	levels of KC, MCP-1, IP-10 and MIG chemokines induced (B6 wild type mice; 1 μg/mouse i.v., 2 and 18 hr)	levels of Th1 and Th2 cytokines induced (B6 wild type mice; 1 μg/mouse i.v., 2 and 18 hr)	dosage required to induce immune responses (B6 wild type mice; i.v., sera 2 h and 18 h) [μg/mouse]	secretion of chemokines KC, MCP-1, IP-10 and MIG in Jα18 KO mice (Jα18 KO mice)	induction of serum cytokines/chemokines (B6 wild type mice; 1 μg/mouse i.v., 2 and 18 hr)
777 ± 22	–	CCCCCCCCCCCCCC[C@@H](O)[C@@H](O)[C@H](CO[C@H]1O[C@H](CO)[C@H](O)[C@H](O)[C@H]1O)NC(=O)CCCCCCCCCCc1ccc(F)cc1 [Compound 7DW8-5, reference compound]	36.2±5.0	no induction	–	–	–	–	–
481 ± 8	–	CC[C@@H](O)[C@@H](O)[C@H](CO[C@H]1OC(CO)[C@@H](O)C(O)C1O)NC(=O)Cc1ccc(F)cc1 (stereo partly drawn) [Compound 7DW8-5-Glc]	17.1±0.8	no induction	relatively high levels	very low levels	1	triggered the secretion	–
–	lack of staining	CCCCCCCCCCCCCC[C@@H](O)[C@@H](O)[C@H](CO[C@H]1O[C@H](CO)[C@@H](O)[C@H](O)[C@@H]1O)NC(=O)CCCCCCCCCCc1ccc(F)cc1 [Compound 7DW8-5-Man]	–	–	–	–	–	–	failed to induce any cytokines/chemokines

From patent US10533034B2, “Human iNKT cell activation using glycolipids” (ACADEMIA SINICA, priority 2014, dated 2020)
